We go through 20 compounds from patent US20260137795A1, “EXATECAN IMMUNOCONJUGATES” (Immunome, Inc., priority 2023, published 2026).

Counter-ions that a name gives are not always drawn.

A short description of data set [1]: Human liver microsome clearance (HLM CL). Type of data set: in vitro ADME. The arrangement: half-life: dose or concentration left out as unconfirmed. To be noted: for half-life: human, microsomes; for HLM Cl T1/2: human liver microsome clearance, 60 min incubation, NADPH. As for the experimental part: Working solution is prepared by adding 5 μL of compound and control stock solution (10 mM in dimethyl sulfoxide, DMSO) to 495 μL of acetonitrile (ACN) (intermediate solution concentration: 100 μM, 99% CAN and 1% DMSO. The appropriate concentrations of microsome working solutions are prepared in 100 mM potassium phosphate buffer. After reaction plates containing mixtures of compound and microsomes are pre-incubated at 37° C., for 10 min. […] of 2 mM of NADPH and 2 mM of MgCl2 solution is added to start the reaction. The final concentrations of incubation medium are as follows: microsome-0.5 mg protein/mL, test compound/control […], NADPH—1 mM, MgCl2—1 mM, acetonitrile 0.99%, DMSO 0.01%. Incubations are performed at 37° C., for 60 min. Samples are taken out at T0, T5, T15, T30, T45 and T60, which is added intermediately to the ice-cold stop solution (acetonitrile with 200) ng/ml of tobutamide and labetalol as internal standard) (125 μl), shaken for 10 min, centrifuged at 4000 rpm for 20 min at 4° C. Analytical plates are analyzed by LCMS.
Human liver microsome clearance assay assess metabolism by the cytochrome P450 system (phase I enzymes). These enzymes oxidize substrates by incorporating oxygen atoms into hydrocarbons, thus causing the introduction of hydroxyl groups, or N- O- and S-dealkylation of substrates and forming more polar products easier to be cleared. Human hepatocyte clearance assay measures more broadly the overall cellular metabolism of the test compound (phase I and phase II enzyme pathways). Phase II enzymes catalyze the conjugation reaction of xenobiotic metabolites and charged species, such as glutathione, sulfate, glycine, or glucuronic acid to form even more polar compounds for easier clearance.
(In general: Liver microsomes are a subcellular fraction often used to study metabolism.)

In data set [2] the test system is Jeko-1. Nature of the data set: CTG assay of payloads (CellTiter-Glo cell viability). Type of data set: cell-based. The text has this:
The CTG assay is a method of determining the number of viable cells in culture based on quantitation of the ATP present, an indicator of metabolically active cells. The cell assay requires the addition of a single reagent, Cell Titer Glo, in which cells are lysed and generation of a luminescent signal is produced. The luminescent signal is proportional to the amount of ATP present. The amount of ATP is directly proportional to the number of cells present in culture. For our assay, cells are ensured to be in log-phase for either Jeko-1 or MDA-MB-468. Cells are transferred to 96 wells and treated with compounds in three-fold serial dilution starting from […] (10 points dilution), for 72 h. Cell viability is analyzed with CellTiter-Glo® Luminescent Cell Viability Assay (Promega) following manufactures' instruction. Percentage of viable cells in each compound concentration is determined by normalizing with the luminescence of vehicle control and plotted into percentage of viability versus dose response curve by nonlinear fit in GraphPad Prism software.
On the technique in general: ATP-based viability assays read luminescence as a measure of living cells.

Data set [3] in a line: physchem. More on the design: dose or concentration left out as unconfirmed. The note with it: PAMPA.
Data set [4] can be described thus: Human hepatocyte clearance (HHEP CL). To be noted: for half-life: both sexes, human; for HHEP Cl T1/2: human hepatocytes intrinsic clearance, 90 min incubation. In kind it is in vitro ADME. The arrangement: half-life: dose or concentration left out as unconfirmed. The method, then: Suspensions of human hepatocytes (from 10 mixed gender human donors, final concentration 0.5×10^6 cell/mL) in Williams' E medium are incubated for 90 min with a test compound (0.90% acetonitrile and 0.10% DMSO, final concentration […]) and positive controls (7-Ethoxycoumarin, 7-Hydroxycoumarin, 0.90% acetonitrile and 0.10% DMSO, final concentration […]), with constant shaking at about 600 rpm at 37° C., in an incubator at 5% CO2 and 95% humidity. The total volume of incubation was 200 μL. A sample ([…]) is taken out at TO, 15, 30, 60 and 90 min, which is added intermediately to the ice-cold stop solution (acetonitrile with 200 ng/ml of tobutamide and labetalol as internal standard) (125 μl), and vortexed at 500 rpm for 10 min, centrifuged at 3220×g for 20 min at 4° C. Analytical plates are sealed and stored at 4° C., until LCMS analysis. Viability of hepatocytes at pre-incubation is determined to be 84.5%.

Data set [5] is described as follows: PAMPA (Parallel Artificial Membrane Permeability Assay). More on the design: dose or concentration left out as unconfirmed. The note with it: pH 7.4. For orientation: In PAMPA a lipid-coated filter parts donor from acceptor wells.
A short description of data set [6]: AC-SINS self-interaction (antibody developability). Type of data set: physicochemical. To be noted: FIG. 19.
Experimental: Antibody developability was assessed by performing an AC-SINS assay and evaluating the potential for self-interaction.
An initial assessment of antibody developability was performed by AC-SINS to evaluate the potential for self-interaction (FIG. 19).

On to `CC[C@@]1(O)C(=O)OCc2c1cc1n(c2=O)Cc2c-1nc1cc(F)c(C)c3c1c2[C@H]([C@H](CCO)NC(C)C)CC3` (single isomer, unassigned) [Compound 14-94], for which the half-life was 0.112 h in data set [1] and 1.13 h in data set [4] (hepatocytes). Moreover, it took 1.6 nM to reach half-maximal inhibition in data set [2] (Homo sapiens, JeKo-1, 72 h) (IC50). Also, the Papp in data set [3] (pH 5) is 16.5 ×10⁻⁶ cm/s; in data set [3] (pH 7.4) it was 7.5 ×10⁻⁶ cm/s.
The matching figures for `CC[C@@]1(O)C(=O)OCc2c1cc1n(c2=O)Cc2c-1nc1cc(F)c(C)c3c1c2[C@H]([C@@H](CCO)NC(C)C)CC3` (single isomer, unassigned) [Compound 14-95]: 0.483 h, 1.42 h, 1.7 nM, 12.7 ×10⁻⁶ cm/s and 6.6 ×10⁻⁶ cm/s.
For the compound `CC[C@@]1(O)C(=O)OCc2c1cc1n(c2=O)Cc2c-1nc1cc(F)c(C)c3c1c2[C@@H]([C@H](N)CO)CC3` (single isomer, unassigned) [Compound 16-105, hydrochloride], the half-life in data set [1] was over 2.42 h; in data set [4] (hepatocytes), 1.87 h. The IC50 in data set [2] (Homo sapiens, JeKo-1, 72 h) is 10.2 nM. Also, the Papp in data set [3] (pH 5) came to 0.07 ×10⁻⁶ cm/s; in data set [3] (pH 7.4) it was 0.06 ×10⁻⁶ cm/s.
`CC[C@@]1(O)C(=O)OCc2c1cc1n(c2=O)Cc2c-1nc1cc(F)c(C)c3c1c2[C@H]([C@@H](N)CO)CC3` (single isomer, unassigned) [Compound 16-108, hydrochloride]: the values for the half-life in data set [1] and in data set [4] (hepatocytes) were 1.83 h and 2.1 h, respectively. Inhibition in data set [2] (Homo sapiens, JeKo-1, 72 h) was half-maximal at 8.3 nM (IC50). In data set [3] (pH 7.4), this compound yielded a Papp of 0.002 ×10⁻⁶ cm/s.
Turning to `CC[C@@]1(O)C(=O)OCc2c1cc1n(c2=O)Cc2c-1nc1cc(F)c(C)c3c1c2[C@@H](NC(=O)CO)CC3` [Dxd, reference compound], the “HLM Cl T1/2” value in data set [1] was determined as 1.67 h. Moreover, in data set [2] (72 h), the IC50 is 0.95 nM. Further, the “HHEP Cl T1/2” value in data set [4] is over 3.62 h.
As for `CC[C@@]1(O)C(=O)OCc2c1cc1n(c2=O)Cc2c-1nc1cc(F)c(C)c3c1c2[C@H]([C@H](CO)NC(C)C)CC3` (single isomer, unassigned) [Compound 17-114], the figures for the half-life in data set [1] and in data set [4] (hepatocytes) were 0.035 h and 0.8 h, respectively. Besides, in data set [2] (Homo sapiens, JeKo-1, 72 h), the IC50 is 1.9 nM. For the same compound, the Papp in data set [3] (pH 5) turned out to be 18.3 ×10⁻⁶ cm/s; in data set [3] (pH 7.4) it was 8 ×10⁻⁶ cm/s.
The matching figures for `CC[C@@]1(O)C(=O)OCc2c1cc1n(c2=O)Cc2c-1nc1cc(F)c(C)c3c1c2[C@@H]([C@@H](CCO)N(C)C)CC3` (single isomer, unassigned) [Compound 15-97]: 0.6 h, 1.88 h, 0.3 nM, 36.6 ×10⁻⁶ cm/s and 15.7 ×10⁻⁶ cm/s.
On to `CC[C@@]1(O)C(=O)OCc2c1cc1n(c2=O)Cc2c-1nc1cc(F)c(C)c3c1c2[C@H]([C@@H](CCO)N(C)C)CC3` (single isomer, unassigned) [Compound 15-99], for which the half-life in data set [1] amounted to 0.967 h; in data set [4] (hepatocytes), 3.47 h. This compound registered an IC50 in data set [2] (Homo sapiens, JeKo-1, 72 h) of 0.32 nM. For the same compound, the Papp in data set [3] (pH 5) worked out at 14.9 ×10⁻⁶ cm/s; in data set [3] (pH 7.4), 8.5 ×10⁻⁶ cm/s.
As for `CC[C@@]1(O)C(=O)OCc2c1cc1n(c2=O)Cc2c-1nc1cc(F)c(C)c3c1c2[C@@H]([C@H](CO)NC(C)C)CC3` (single isomer, unassigned) [Compound 17-112], the figures for the half-life in data set [1] and in data set [4] (hepatocytes) were 1.03 h and over 3.62 h, respectively. For the same compound, 17 nM corresponded to half-maximal inhibition in data set [2] (Homo sapiens, JeKo-1, 72 h) (IC50). In addition, the Papp was 14.4 ×10⁻⁶ cm/s in data set [3] (pH 5) and 6.3 ×10⁻⁶ cm/s in data set [3] (pH 7.4).
`CC[C@@]1(O)C(=O)OCc2c1cc1n(c2=O)Cc2c-1nc1cc(F)c(C)c3c1c2[C@@H](N)CC3` [Exatecan]: the half-life stood at 1.25 h in data set [1] and 2.38 h in data set [4] (hepatocytes in suspension, read-out: HHEP Cl T1/2). This compound also showed an IC50 in data set [2] (Homo sapiens, JeKo-1, 72 h) of 0.4 nM. For the same compound, the Papp was over 107 ×10⁻⁶ cm/s in data set [3] (pH 5) and 16.3 ×10⁻⁶ cm/s in data set [5].
In the case of `CC[C@@]1(O)C(=O)OCc2c1cc1n(c2=O)Cc2c-1nc1cc(F)c(C)c3c1c2[C@H]([C@@H](CO)NC(C)C)CC3` (single isomer, unassigned) [Compound 17-115], the half-life was determined as 0.1 h in data set [1] and 1.5 h in data set [4] (hepatocytes). In data set [2] (Homo sapiens, JeKo-1, 72 h), this compound displayed an IC50 of 16 nM. For the same compound, the Papp in data set [3] (pH 5) is 10.5 ×10⁻⁶ cm/s; in data set [3] (pH 7.4), 4.8 ×10⁻⁶ cm/s.
Take `CCc1c2c(nc3ccc(O)cc13)-c1cc3c(c(=O)n1C2)COC(=O)[C@]3(O)CC` [SN-38, reference compound]: in data set [1], the “HLM Cl T1/2” value worked out at 1.35 h. In data set [2] (72 h), this compound showed an IC50 of 0.92 nM. Besides, in data set [4], the “HHEP Cl T1/2” value came to 1.28 h.
Consider `CC[C@@]1(O)C(=O)OCc2c1cc1n(c2=O)Cc2c-1nc1cc(F)c(C)c3c1c2[C@@H]([C@H](CCO)NC(C)C)CC3` (single isomer, unassigned) [Compound 14-92], for which the half-life in data set [1] is 0.95 h; in data set [4] (hepatocytes), over 3.62 h. The IC50 in data set [2] (Homo sapiens, JeKo-1, 72 h) came out at 1.7 nM. Further, the Papp is 17.7 ×10⁻⁶ cm/s in data set [3] (pH 5) and 8.4 ×10⁻⁶ cm/s in data set [3] (pH 7.4).
For `CC[C@@]1(O)C(=O)OCc2c1cc1n(c2=O)Cc2c-1nc1cc(F)c(C)c3c1c2[C@@H]([C@@H](CO)NC(C)C)CC3` (single isomer, unassigned) [Compound 17-113] the same measures were 0.533 h, 2.42 h, 4.2 nM, 26.9 ×10⁻⁶ cm/s and 9.7 ×10⁻⁶ cm/s.
For `CC[C@@]1(O)C(=O)OCc2c1cc1n(c2=O)Cc2c-1nc1cc(F)c(C)c3c1c2[C@@H]([C@@H](CCO)NC(C)C)CC3` (single isomer, unassigned) [Compound 14-93] the same measures were 0.767 h, 3.08 h, 2.6 nM, 20.6 ×10⁻⁶ cm/s and 9.2 ×10⁻⁶ cm/s.
For `CC[C@@]1(O)C(=O)OCc2c1cc1n(c2=O)Cc2c-1nc1cc(F)c(C)c3c1c2[C@H]([C@H](CCO)N(C)C)CC3` (single isomer, unassigned) [Compound 15-98] the same measures were 0.112 h, 1.3 h, 0.25 nM, 27 ×10⁻⁶ cm/s and 11.3 ×10⁻⁶ cm/s.
Consider Adalimumab, for which, in data set [6], the “AC-SINS shift / self-interaction” value is “low shift”.
Turning to `CC[C@@]1(O)C(=O)OCc2c1cc1n(c2=O)Cc2c-1nc1cc(F)c(C)c3c1c2[C@@H]([C@H](CCO)N(C)C)CC3` (single isomer, unassigned) [Compound 15-96], the half-life in data set [1] is 1.6 h; in data set [4] (hepatocytes), over 3.62 h. This compound showed an IC50 in data set [2] (Homo sapiens, JeKo-1, 72 h) of 0.52 nM. Also, the Papp in data set [3] (pH 5) came to 16.7 ×10⁻⁶ cm/s; in data set [3] (pH 7.4), 15.6 ×10⁻⁶ cm/s.
As for `CC[C@@]1(O)C(=O)OCc2c1cc1n(c2=O)Cc2c-1nc1cc(F)c(C)c3c1c2[C@@H]([C@@H](N)CO)CC3` (single isomer, unassigned) [Compound 16-102, hydrochloride], the half-life in data set [1] turned out to be 2.37 h; in data set [4] (hepatocytes) it was 1.75 h. The compound further displayed a half-maximal inhibitory concentration (IC50) in data set [2] (Homo sapiens, JeKo-1, 72 h) of 27.7 nM. The same compound had a Papp in data set [3] (pH 7.4) of 0.02 ×10⁻⁶ cm/s.
Regarding `CC[C@@]1(O)C(=O)OCc2c1cc1n(c2=O)Cc2c-1nc1cc(F)c(C)c3c1c2[C@H]([C@H](N)CO)CC3` (single isomer, unassigned) [Compound 16-111, hydrochloride], the half-life in data set [1] was 1.72 h; in data set [4] (hepatocytes), 2.22 h. The IC50 in data set [2] (Homo sapiens, JeKo-1, 72 h) came to 17.6 nM. The Papp amounted to 0.03 ×10⁻⁶ cm/s in data set [3] (pH 5) and 0.04 ×10⁻⁶ cm/s in data set [3] (pH 7.4).

For orientation: IC50 means the midpoint of a concentration-inhibition curve. By Papp is commonly meant the rate of passage across a membrane or cell layer, normalised by area and donor concentration.
